According to US4840956A, “Novel disubstituted-7-pyrrolidinoquinoline antibacterial agents” (Warner-Lambert Company, priority 1988, dated 1989):
In brackets after ≈: the same amount, converted by molar mass.

How the values were obtained:
Experiment in all cases: MIC by microtitration dilution method
Format in all cases: cell-based
[1] = system: Streptococcus faecalis MGH-2; settings: Enterococcus faecalis, MGH2; Streptococcus faecalis MGH-2, in vitro; read-out: Minimal Inhibitory Concentration MIC
Source text: (§1) The compounds of the invention display antibacterial activity when tested by the microtitration dilution method as described in Heifetz, et al, Antimicr. Agents & Chemoth., 6, 124 (1974), which is incorporated herein by reference.
(§2) By use of the above referenced method, the following minimum inhibitory concentration values (MICs in μg/ml) were obtained for representative compounds of the invention.

[2] = system: Staphylococcus aureus UC-76; settings: UC76; Staphylococcus aureus UC-76, in vitro; read-out: Minimal Inhibitory Concentration MIC
Source text: as §1, §2

[3] = system: Staphylococcus aureus H 228; settings: H228; Staphylococcus aureus H 228, in vitro; read-out: Minimal Inhibitory Concentration MIC
Source text: as §1, §2

[4] = system: Streptococcus pneumoniae SV-1; settings: SV1; Streptococcus pneumoniae SV-1, in vitro; read-out: Minimal Inhibitory Concentration MIC
Source text: as §1, §2

[5] = system: Streptococcus pyogenes C-203; settings: C203; Streptococcus pyogenes C-203, in vitro; read-out: Minimal Inhibitory Concentration MIC
Source text: as §1, §2

Proteus rettgeri M 1771 = settings: Providencia rettgeri, M1771; Proteus rettgeri M 1771, in vitro; read-out: Minimal Inhibitory Concentration MIC
Source text: (§3) Agents & Chemoth., 6, 124 (1974), which is incorporated herein by reference.

[6] = system: Pseudomonas aeruginosa UI-18; settings: UI18, read-out: Minimal Inhibitory Concentration MIC
Source text: as §3

[7] = system: Enterobacter cloacae MA 2646; settings: MA2646, read-out: Minimal Inhibitory Concentration MIC
Source text: as §3

[8] = system: Klebsiella pneumoniae MGH-2; settings: MGH2, read-out: Minimal Inhibitory Concentration MIC
Source text: as §3

Escherichia coli Vogel = settings: in vitro, read-out: Minimal Inhibitory Concentration MIC
Source text: as §3

`NCC1(c2ccccc2)CCN(c2c(F)cc3c(=O)c(C(=O)O)cn(C4CC4)c3c2F)C1` (stereo not shown) [Example 5, 7-[[3-(Aminomethyl)-3-phenyl]-1-pyrrolidinyl]-1-cyclopropyl-6,8-difluro-1,4-dihydro-4-oxo-3-quinolinecarboxylic acid] showed an MIC [1] of 0.05 µg/mL (≈ 0.114 µM), an MIC [2] of 0.013 µg/mL (≈ 0.0296 µM) and an MIC [3] of 0.025 µg/mL (≈ 0.0569 µM). It also gave an MIC [4] of 0.013 µg/mL (≈ 0.0296 µM), an MIC [5] of 0.05 µg/mL (≈ 0.114 µM) and an MIC (Proteus rettgeri M 1771) of 0.2 µg/mL (≈ 0.455 µM). For the same molecule, the MIC [6] was 0.4 µg/mL (≈ 0.91 µM), the MIC [7] was 0.05 µg/mL (≈ 0.114 µM) and the MIC [8] was 0.1 µg/mL (≈ 0.228 µM). The MIC (Escherichia coli Vogel) was 0.05 µg/mL (≈ 0.114 µM).
